Test results from patent US20020090619A1, “Methods for identifying mitochondrial divalent cation transporters” (priority 2000, published 2002).

Test: ETH 129 mediated cation transport into Quin-2 loaded POPC vesicles
Assay type: biochemical
Set-up: slope of log Ca2+ transport rate vs ΔΨ: unit not given here
Conditions: for SlopeETH 129: log rate vs log ETH 129; for SlopeMe: log rate vs log cation concentration, FIG. 8B
Method: Unilamellar vesicles loaded with Quin-2 were prepared from 1-palmitoyl-2-oleoyl-sn-glycerophosphatidylcholine (POPC) by freeze-thaw extrusion (Erdahl et al., 1994 Biophys. J. 66:1678; Erdahl et al., 1995 Biophys. J. 69:2350). The formation medium contained 5 mM Quin-2 (K+), 10 mM Hepes (K+), pH 7.00, and 100 mM KCl. A high internal K+ concentration was sought to allow the generation of membrane potentials of varying magnitude (see below). The preparations obtained were applied to Sephadex™ G-50 mini-columns (Pharmacia, Piscataway N.J.) and eluted by low speed centrifugation (Fry et al., 1978 Anal. Biochem. 90:809), to replace the external medium with a 10 mM Hepes buffer (Na+), pH 7.00 (Erdahl et al., 1994 Biophys. J. 66:1678; Erdahl et al., 1995 Biophys. J. 69:2350). The nominal concentration of POPC in final preparations was determined as lipid phosphorus (Bartlett, 1959 J Biol. Chem. 234:466) and was near 80 mM. The average diameter of these vesicles was 71 nm as determined by freeze-fracture electron microscopy (Chapman et al., 1990 Chem. Phys. Lipids 55:73). They contained entrapped K+ at approximately 125 mM, as determined by atomic absorption spectroscopy, and Quin-2 at approximately 6 mM. The latter value was determined by titrating lysed vesicles with a standard solution of CaCl2 and was about one third of the expected value (Erdahl et al., 1995 Bipohys. J. 69:3250). The high solute level in the formation medium reduced the efficiency of Quin-2 entrapment by reducing the effectiveness of a freeze-thaw driven solute concentrating mechanism that normally elevates the internal concentrations of solutes, relative to the external medium (Chapman et al., 1990 Chem. Phys. Lipids 55:73; Chapman et al., 1990 Chem. Phys. Lipids 60:201).
POPC vesicles containing Quin-2 were utilized at a nominal phospholipid concentration of 1.0 mM, and at 25° C. The external medium contained polyvalent cation salts as described below, 100 mM NaCl, or mixtures of NaCl and KCl totaling […], and 10 mM Hepes, pH 7.00, unless otherwise noted. The medium pH was adjusted with NaOH that had been passed over Chelex 100 columns to remove contaminating cations (Erdahl et al., 1994 Biophys. J. 66:1678). In most cases an inside negative membrane electrical potential was present during the experiments. This was generated by the presence of 0.5 μM valinomycin (Val), which transports K+ out of the vesicles electrogenically (Erdahl et al., 1994 Biophys. J. 66:1678). The magnitude of the potential was controlled by varying the concentration ratio of Na+ to K+ in the external medium. A TPP+electrode was used to measure the potential (Broekemeier et al, 1998 Biochem. 37:13059), and thereby to verify that the calculated values were obtained. For these purposes the incubation medium contained 2.0 μM TPP.Cl and the entrapped volume was taken to be 2.02 μl/ml at a nominal POPC concentration of 1.0 mM (Chapman et al., 1990 Chem. Phys. Lipids 55:73).
Val was omitted when an imposed membrane potential was not desired, or in some cases 5 μM of the protonophore carbonyl cyanide m-chlorophenylhydrazone (CCP) was present instead of Val.
The transport of polyvalent cations was monitored by difference absorbance measurements which detected formation of the Quin-2:cation complex within the vesicle lumen. An Aminco DW2a spectrophotometer operated in the dual wavelength mode was employed. In addition, an Oriel No. 59800 band pass filter was used between the cuvette and the beam scrambler-photomultiplier assembly to prevent detection of the fluorescent light emitted by Quin-2. The sample wavelength for all cations was 264 nm. The reference wavelengths were at an isosbestic point in the Quin-2/Quin-2:cation complex difference spectrum of interest. These wavelengths varied slightly from cation to cation, as previously described (Erdahl et al., 1996 Biochem. 35:13817). […]

[1] = 5.0 μM ETH 129, 30 μM CaCl2, Val, FIG. 3B

O=C(COCC(=O)N(C1CCCCC1)C1CCCCC1)N(C1CCCCC1)C1CCCCC1 [ETH 129]
slope of log rate vs. log Ca2+ concentration (5.0 μM ETH 129, 0.5 μM Val, FIG. 7B): 0.7 | Ca2+ transport rate at zero potential (extrapolated) [1]: 0.41 nM/s | slope of log Ca2+ transport rate vs ΔΨ [1]: 0.12 | Ca2+ transport rate when CCP was used to eliminate an opposing potential (5.0 μM ETH 129, 100 μM CaCl2, 5.0 μM CCP, FIG. 2C): 0.88 nM/s | Selectivity, Ca/Me (10^−2.0 M Cations, Me = Ca^2+): ≡1.0 | Selectivity, Ca/Me (10^−2.0 M Cations, Me = Co^2+): 53 | Selectivity, Ca/Me (10^−2.0 M Cations, Me = La^3+): 5.1 | Selectivity, Ca/Me (10^−2.0 M Cations, Me = Mn^2+): 59 | Selectivity, Ca/Me (10^−2.0 M Cations, Me = Ni^2+): 55 | Selectivity, Ca/Me (10^−2.0 M Cations, Me = Sr^2+): 2.8 | Selectivity, Ca/Me (10^−2.0 M Cations, Me = Zn^2+): 2.3 | Selectivity, Ca/Me (10^−3 5 M Cations, Me = Ca^2+): ≡1.0 | Selectivity, Ca/Me (10^−3 5 M Cations, Me = Co^2+): 9.9 | Selectivity, Ca/Me (10^−3 5 M Cations, Me = La^3+): 0.44 | Selectivity, Ca/Me (10^−3 5 M Cations, Me = Mn^2+): 8.9 | Selectivity, Ca/Me (10^−3 5 M Cations, Me = Ni^2+): 8.6 | Selectivity, Ca/Me (10^−3 5 M Cations, Me = Sr^2+): 2.9 | Selectivity, Ca/Me (10^−3 5 M Cations, Me = Zn^2+): 2.6 | Selectivity, Ca/Me (10^−5.0 M Cations, Me = Ca^2+): ≡1.0 | Selectivity, Ca/Me (10^−5.0 M Cations, Me = Co^2+): 1.6 | Selectivity, Ca/Me (10^−5.0 M Cations, Me = La^3+): 0.14 | Selectivity, Ca/Me (10^−5.0 M Cations, Me = Mn^2+): 1.1 | Selectivity, Ca/Me (10^−5.0 M Cations, Me = Ni^2+): 1.1 | Selectivity, Ca/Me (10^−5.0 M Cations, Me = Sr^2+): 1.0 | Selectivity, Ca/Me (10^−5.0 M Cations, Me = Zn^2+): 0.9 | slope of log rate vs. log ionophore concentration (Ca2+ 30 μM, Val, FIG. 6B): 2.8 | selectivity sequence among the divalent cations (FIG. 8): Ca^2+>Zn^2+≈Sr^2+>Co2+≈Ni^2+≈Mn^2+ | acceleration of Ca2+ transport per 59 mV increase in ΔΨ (equivalent of the slope value, FIG. 3B): 3.3 fold | SlopeETH 129 (cation Ca^2+ 1.0 mM): 1.5 | SlopeETH 129 (cation Co^2+ 1.0 mM): 0.55 | SlopeETH 129 (cation Mn^2+ 1.0 mM): 0.85 | SlopeETH 129 (cation Ni^2+ 1.0 mM): 0.78 | SlopeETH 129 (cation Sr^2+ 1.0 mM): 2.0 | SlopeMe (cation Ca^2+): 0.65 | SlopeMe (cation Co^2+): 0.11 | SlopeMe (cation La^3+): nonlin | SlopeMe (cation Mn^2+): 0.04 | SlopeMe (cation Ni^2+): 0.05 | SlopeMe (cation Sr^2+): 0.57 | SlopeMe (cation Zn^2+): 0.58 | effect of ETH 129 alone on rate of Ca2+ permeation (no Val or CCP, FIG. 2A): only a modest effect
